Results on 13 compounds are retold here after patent publication US12090147B2, “Combination therapy with 2-(4-chlorophenyl)-N-((2-(2,6-dioxopiperidin-3-yl)-1-oxoisoindolin-5-yl)methyl)-2,2-difluoroacetamide” (Celgene Corporation, priority 2019, dated 2024).

Residues, ends and D or L forms follow the SMILES beside them. *: point of attachment. Cbz = O=C(OCc1ccccc1)*; CH2F = FC*

Holding throughout (format): cell-based, human
The subject of one test is ML-2. In words: Cytokine induction, electrochemiluminescence assay of culture supernatant. The settings on record: for Effect of caspase inhibitor on secreted IL-1β induction by Compound 1: 1000 nM Compound 1 with 1, 10, 100 μM inhibitor; for Secreted IL-1β in cell culture supernatant: 24, 48 and 72 hours, doses conferring similar caspase3/7 activation and viability loss; for Effect of second agent on Compound 1 induced IL-1β: ML-2 (FIG. 12). The procedure: (§1) For cytokine assays on AML cell lines, cells were seeded at 1 million per mL, 3 mL per well of 6-well plates and allowed set overnight. The next day, cells were treated with 3 μL 1000× working stock of compounds of interest.
(§2) Human AML cell lines, HL-60 (CCL-240), KG-1 (CCL-246), ML-2 (ACC-15), MOLM-13 (ACC-554), MV-4-11 (CRL-9591), NOMO-1 (ACC-542), TF-1 (CRL-2003), THP-1 (TIB-202), and U937 (CRL-1593) were obtained from American Type Culture Collection (ATCC; Manassas, VA) or Deutsche Sammlung von Mikroorganismen and Zellkulturen (DSMZ, Germany) cell banks. Acute myeloid leukemia cell lines were maintained in RPMI-1640 (ATCC Cat No. 30-2001) containing 20% fetal bovine serum (FBS) (Corning Cat No. 35-010-CV) and maintained in humidified incubators at 5% carbon dioxide.
(§3) IL-1α (Meso Scale Disgnostics, Cat No. K151RBD), IL-1β (Meso Scale Disgnostics, Cat No. K151QPD), IL-1RA (Meso Scale Disgnostics, Cat No. K151WTD), IL-18 (Meso Scale Disgnostics, Cat No. K151VJK), TNFa (Meso Scale Disgnostics, Cat No. K151QWD), VEGF Meso Scale Disgnostics, Cat No. K151RHD) levels were measured by (Meso Scale Disgnostics assay kits following manufacturer's instructions. Measurements were made on a MESO™ SECTOR S 600 plate reader (Meso Scale Disgnostics).
(§4) Cell proliferation (CTG) and caspase 3/7 activation (IncuCyte) were analyzed using GraphPad Prism. Electrochemiluminescence data was analyzed using MSD Discovery Workbench platform.
(§5) The level of intracellular pro IL-1β and released IL-1β in eight AML cell lines and normal PBMC treated with a titration of Compound 1 over a 48 hour period was assessed. (see FIGS. 1A-1C, Table 2). Supernatant IL-1βb level was induced over 5 fold in 6 out of 8 AML cell lines and normal PBMC upon Compound 1 treatment compared to DMSO (FIGS. 1A, 1B, and 1C, Table 2).

For a further test, the system named is MV4-11. Described as above. The settings on record: for Effect of caspase inhibitor on secreted IL-1β induction by Compound 1: MV411, 1000 nM Compound 1 with 10 μM inhibitor. The method, then:
as §1, §2, §3, §4, §5

The test system of the next test is ML-2 cells. In words: Immunoblot analysis of target proteins. Particulars: 24, 48 and 72 hours, doses conferring similar caspase3/7 activation and viability loss. The procedure: Cells were washed in ice-cold 1×PBS twice before harvest in Cell Extraction Buffer (ThermoFisher Cat No. FNN0011) supplemented with 1× Halt Protease Inhibitor Cocktail (ThermoFisher Cat No. 78429). Whole cell extracts were collected after centrifugation at 14,000 g for 10 minutes, resolved on 4-12% Bis-Tris Novex Precast Gels (ThermoFisher Cat No. WG1403A), transferred onto a nitrocellulose membrane using the Turboblot Turbo Transfer System (Bio-Rad), and probed with the indicated primary antibodies. Bound antibodies were detected with IRDye-680 or -800 conjugated secondary antibodies using a LI-COR scanner.
Antibodies used for immunoblot: mouse anti-human GSPT-1 mAb conjugated with AL647 (clone number GSPT1-164-17G9-G6, Celgene, San Diego, CA), IL-1β (R&D Systems, Cat No. AF-201-NA), cleaved caspase 3 (Cell Signaling, Cat No. 9664S), alpha-tubulin (Cell Signaling, Cat No. 3873S), cleaved Caspase-8 (Cell Signaling, Cat No. 9748S), Caspase-1 (Cell Signaling, Cat No. 3866S), HA tag (Cell Signaling, Cat No. 3724), phosphor-eIF2a (Cell Signaling, Cat No. 9721), total eIF2a (Cell Signaling, Cat No. 9722), ATF4 (Cell Signaling, Cat No. 11815S), CHOP (Abcam, Cat No. 11419), GAPDH (Cell Signaling, Cat No. 5174), rabbit anti-mouse 800 antibody (LI-COR Biosciences), rabbit anti-mouse 680 antibody (LI-COR Biosciences), mouse anti-rabbit 680 antibody (LI-COR Biosciences), mouse anti-rabbit 800 antibody (LI-COR Biosciences)
as §5

The test system of a further test is MOLM-13. In words: Cytokine induction, electrochemiluminescence assay of culture supernatant. Particulars: for Effect of second agent on Compound 1 induced IL-1β: MOLM13 (FIG. 13). The method, then: as §1, §2, §3, §4, §5
The subject of test [1] is eight AML cell lines and normal PBMC. As to the kind of experiment: IL-1 family cytokine induction across the cell panel. The settings on record: most cell lines tested (FIG. 1B: ML-2); LPS as positive control. The procedure:
as §1, §3, §5
The maturation of IL-1β can be mediated through classical caspase-1 inflammasome pathway, or a caspase-8 dependent non-canonical inflammasome signaling (Antonopoulos et al. J Biol Chem. 2015, 290(33):20167-84; Chauhan et al. Cell Rep. 2018, 25(9):2354-2368; and Schneider et al. Cell Rep. 2017, 21(13):3846-3859). To understand if classical caspase-1 mediated inflammasome pathway was activated by Compound 1, the levels of an inflammasome marker, IL-18, were tested in response to Compound 1 (FIG. 1B, Table 1), using a known inflammasome stimulant lipopolysaccharide (LPS) as positive control.

The next test deals with NOMO-1. In words: Cytokine induction, electrochemiluminescence assay of culture supernatant. The method, then: as §1, §2, §3, §4, §5
The next test concerns U937. The description is as above. The method, then: as §1, §2, §3, §4, §5
Another test relates to TF-1. The description is as above. The method, then: as §1, §2, §3, §4, §5
The next test concerns THP-1. Described as above. The procedure: as §1, §2, §3, §4, §5
The next test relates to KG-1. The test is described as above. The method, then: as §1, §2, §3, §4, §5
In test [2] the test system is Normal Peripheral Blood Mononuclear Cells. Described as above. The settings on record: PBMC. The procedure: Normal PBMCs were purchased from AllCells (Cat No. PB006F). Primary AML BMMC in were purchased from Conversant (SKU ID: BBM1000-E1110036458110215SH) or Fidelis Research (AML55, AML57, AML73, AML74, AML76, AML79, AML80, AML81, AML84, AML95). Bone marrow from health donor was purchased from StemCell Technologies (Cat No. 70001.2).
Normal PBMCs were cultured in RPMI-1640 (ATCC Cat No. 30-2001) containing 20% fetal bovine serum (Corning Cat No. 35-010-CV). Primary AML and bone marrows were cultured in Complete Medium Cytokines 1X: StemSpam™ Serum-Free Expansion Medium (StemCell Technologies Cat No. 09650) supplemented with 50 ng/mL Stem Cell Factor (Peprotech Cat No. 300-07), 50 ng/mL recombinant Human FLT3-Ligand (Peprotech Cat No. 300-19), 20 ng/mL recombinant human-interleukin-3 (Peprotech Cat No. 200-03), […] recombinant human-interleukin-6 (Peprotech Cat No. 200-06), 1 μM StemRegenin (StemCell Technologies Cat No. 72342), penicillin/streptomycin (Invitrogen Cat No. 15140122).
as §3, §4, §5

In the case of `CC(C)(C)[C@H](NC(=O)c1ccc(N)c(Cl)c1)C(=O)N1CCC[C@H]1C(=O)N[C@H](C=O)CC(=O)O` [VRT043198], the “Effect of caspase inhibitor on secreted IL-1β induction by Compound 1” value (“Effect of caspase inhibitor” for short) in the test with ML-2 (ML-2) and in the test with MV4-11 was “did not suppress IL-1β induction to nearly the same extent as pan- or caspase 8 inhibitors” in each case.
For the compound `COC(=O)C[C@H](NC(=O)[C@H](C)NC(=O)[C@@H](NC(=O)OCc1ccccc1)C(C)C)C(=O)CF` [Z-VAD-FMK] (Cbz-Val-Ala-Asp(OMe)-CH2F), the “Effect of caspase inhibitor” value with ML-2 (ML-2) and in the test on MV4-11 was “significantly blocked” each time.
Consider `CC[C@H](C)[C@H](NC(=O)OCc1ccccc1)C(=O)N[C@@H](CCC(=O)OC)C(=O)N[C@H](C(=O)N[C@@H](CC(=O)OC)C(=O)CF)[C@@H](C)O` [Z-VAD-IETD] (Cbz-IE(OMe)TD(OMe)-CH2F), for which the “Effect of caspase inhibitor” value in the test with ML-2 (ML-2) and with MV4-11 was “significantly blocked” each time.
For the compound `CC(C)C[C@H](NC(=O)[C@H](Cc1ccccc1)NC(=O)c1cnccn1)B(O)O` [bortezomib], the “Intracellular pro-IL-1β (immunoblot)” value in the test on ML-2 cells was “not able to induce high levels”. In addition, in the test with ML-2 (ML-2), the “IL-1β induced by ER stress / unfolded protein response inducers” value is recorded as “Low levels of IL-1β was induced” and the “Secreted IL-1β in cell culture supernatant” value was “not able to induce high levels”.
With `C[C@]12CCC(=O)C=C1CC[C@@H]1[C@@H]2[C@@H](O)C[C@@]2(C)[C@H]1CC[C@]2(O)C(=O)CO` [cortisol], the “Effect of second agent on Compound 1 induced IL-1β” value (“Effect of second agent” for short) in the test with ML-2 and in the test on MOLM-13 was “can be suppressed” throughout.
Regarding `C[C@]12CCC(=O)C=C1CC[C@@H]1[C@@H]2C(=O)C[C@@]2(C)[C@H]1CC[C@]2(O)C(=O)CO` [cortisone], the “Effect of second agent” value in the test with ML-2 and in the test with MOLM-13 was “can be suppressed” in each case.
With `C[C@@H]1C[C@@H]([C@H](O)CC2CC(=O)NC(=O)C2)C(=O)[C@@H](C)C1` [cycloheximide, reference compound], the “Intracellular pro-IL-1β (immunoblot)” value in the test with ML-2 cells was “not able to induce high levels”. Besides, the “Secreted IL-1β in cell culture supernatant” value in the test on ML-2 (ML-2) is on record as “not able to induce high levels”.
Regarding `C[C@]12C=CC(=O)C=C1CC[C@@H]1[C@@H]2[C@@H](O)C[C@@]2(C)[C@H]1CC[C@]2(O)C(=O)CO` [prednisolone], the “Effect of second agent” value with ML-2 and in the test with MOLM-13 was “can be suppressed” in each case.
Turning to `C[C@]12C=CC(=O)C=C1CC[C@@H]1[C@@H]2C(=O)C[C@@]2(C)[C@H]1CC[C@]2(O)C(=O)CO` [prednisone], the “Effect of second agent” value in the test with ML-2 and with MOLM-13 was “can be suppressed” in each case.
Regarding `C/C=C(/C)C(=O)O[C@H]1C(C)=C2[C@H]([C@@H]1OC(=O)CCCCCCC)[C@@](C)(OC(C)=O)C[C@H](OC(=O)CCC)[C@@]1(O)[C@H]2OC(=O)[C@@]1(C)O` [thapsigargin], the “Intracellular pro-IL-1β (immunoblot)” value in the test with ML-2 cells is “not able to induce high levels”. Besides, in the test with ML-2 (ML-2), the “IL-1β induced by ER stress / unfolded protein response inducers” value is on record as “Low levels of IL-1β was induced” and the “Secreted IL-1β in cell culture supernatant” value is given as “not able to induce high levels”.
With `C[C@]12C=CC(=O)C=C1CC[C@H]1[C@@H]3C[C@@H](O)[C@](O)(C(=O)CO)[C@@]3(C)C[C@H](O)[C@@]12F` [triamcinolone], the “Effect of second agent” value with ML-2 and with MOLM-13 was “can be suppressed” in each case.
Z-YVAD: the “Effect of caspase inhibitor” value in the test on ML-2 (ML-2) and in the test on MV4-11 was “did not suppress IL-1β induction to nearly the same extent as pan- or caspase 8 inhibitors” in each case.
For the compound “lipopolysaccharide [LPS, reference compound]”, the “IL-18 levels (inflammasome marker)” value in test [1] is recorded as “profound IL-18 induction at early time point (6 hrs)”. Besides, the IL-1β induction in the test on NOMO-1 was determined as 3.11; in the test with ML-2 (ML-2), 8.70; with U937 it was 1.44; in the test on TF-1, 1.12; with MOLM-13 (MOLM-13), 0.00; with THP-1 it was 96.62. Moreover, the IL-1β induction was found to be 17.67 in the test on KG-1, 65.19 in the test with MV4-11 (MV4-11) and 174.15 in test [2]. In addition, the IL-18 induction with NOMO-1 is recorded as 1.77; in the test with ML-2 (ML-2) it was 1.21; in the test on U937 it was 1.28; with TF-1 it was 1.41; in the test on THP-1 it was 12.13; in the test on KG-1, 3.47. Moreover, the IL-18 induction came to 24.45 with MV4-11 (MV4-11) and 1.88 in [2].
